Values belong to the compound of their own block, whether it stands above or below them.
Experiments:
[1] = Monkey cassette dosing IV pharmacokinetics; format: in vivo; settings: male, plasma
CYP1A2 = biological target: T1, CYP1A2 (Homo sapiens, UniProt P05177); assay: Time-dependent inhibition of CYP450 enzymes in human liver microsomes: CYP1A2; format: in vitro ADME
T1 construct: from tissue; host or cells: pooled human liver microsomes
T1 sequence (P05177 1-516): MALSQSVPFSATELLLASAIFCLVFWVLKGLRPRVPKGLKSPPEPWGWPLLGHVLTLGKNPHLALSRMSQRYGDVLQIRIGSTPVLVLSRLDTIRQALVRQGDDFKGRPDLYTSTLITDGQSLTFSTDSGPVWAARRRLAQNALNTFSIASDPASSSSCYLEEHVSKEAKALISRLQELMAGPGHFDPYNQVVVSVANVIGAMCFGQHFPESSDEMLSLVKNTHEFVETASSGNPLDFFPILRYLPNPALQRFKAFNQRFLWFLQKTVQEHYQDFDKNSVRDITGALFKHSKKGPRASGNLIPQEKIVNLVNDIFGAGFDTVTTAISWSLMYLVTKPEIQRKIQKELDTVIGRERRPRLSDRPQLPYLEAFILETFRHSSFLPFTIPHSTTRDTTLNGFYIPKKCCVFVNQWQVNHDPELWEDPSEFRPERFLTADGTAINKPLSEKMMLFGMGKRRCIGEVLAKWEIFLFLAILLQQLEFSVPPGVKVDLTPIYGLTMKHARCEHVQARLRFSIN
Procedure: (§1) An assessment of the time-dependent Inhibitory Potential of the test compounds against Principal Human Cytochrome P450 Isozymes using Human Liver Microsomes was also carried out using standard methods (Grimm et al, Drug Metab. Dispos., Jul; 37(7):1355-70. doi: 10.1124/dmd.109.026716, 2009). Pooled human microsomes and selective CYP probe substrates were used for in vitro assessment of test compounds at 25 and 50 μM as time-dependent inhibitors of […] human hepatic cytochrome P450 isozymes (CYP1A2, 2B6, 2C9, 2C19, 2D6, and 3A4). LC-MS/MS was used to quantify metabolite formation. The inhibition of each P450 enzyme in human liver microsomes was measured as the percentage decrease in the activity of marker metabolite formation as measured by LC-MS/MS compared to non-inhibited controls (=100% activity) at time zero and after 30 minutes incubation. The occurrence of any time dependent inhibition was then expressed as the fold change in enzyme activity at time zero relative to the activity after 30 minutes incubation. The time dependent inhibition for the compound 5-(3,4-difluorobenzyl)-8-((1 r,4r)-4-methylcyclohexyl)-6,9-dioxo-2,5, 8-triazaspiro [3.5]nonane-2-carbaldehyde (Compound 1) against CYP1A2, […], CYP2C8, CYP2C9, CYP2C19, CYP2D6, CYP3A4-M and CYP3A4-T is shown in Table B-12.

CYP2B6 = biological target: T2, CYP2B6 (Homo sapiens, UniProt P20813); assay: Time-dependent inhibition of CYP450 enzymes in human liver microsomes: CYP2B6; format: in vitro ADME
T2 construct: from tissue; host or cells: pooled human liver microsomes
T2 sequence (P20813 1-491): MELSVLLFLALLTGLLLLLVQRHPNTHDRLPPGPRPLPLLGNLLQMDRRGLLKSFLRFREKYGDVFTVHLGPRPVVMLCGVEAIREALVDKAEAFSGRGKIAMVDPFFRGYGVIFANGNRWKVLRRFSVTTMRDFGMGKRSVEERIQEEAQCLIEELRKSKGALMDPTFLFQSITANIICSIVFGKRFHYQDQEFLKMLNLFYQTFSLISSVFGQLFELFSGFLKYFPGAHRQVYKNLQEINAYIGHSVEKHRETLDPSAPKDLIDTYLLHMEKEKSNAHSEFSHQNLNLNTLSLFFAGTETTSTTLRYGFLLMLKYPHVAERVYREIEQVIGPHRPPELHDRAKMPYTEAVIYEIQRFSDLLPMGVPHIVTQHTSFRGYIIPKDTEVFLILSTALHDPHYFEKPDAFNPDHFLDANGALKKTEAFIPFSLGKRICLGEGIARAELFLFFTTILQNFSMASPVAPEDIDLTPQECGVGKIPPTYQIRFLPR
Procedure: as §1

CYP2D6 = biological target: T3, CYP2D6 (Homo sapiens, UniProt P10635); assay: Time-dependent inhibition of CYP450 enzymes in human liver microsomes: CYP2D6; format: in vitro ADME; settings: for fold change in activity (time dependent inhibition), 2D6: human liver microsomes
T3 construct: from tissue; host or cells: pooled human liver microsomes
Procedure: as §1

[2] = Long-term storage stability of the solid (1, 3, 6 months); format: physicochemical
Text: For long-term (1 month or longer) stability experiments, solid material was placed into LDPE bags and sealed in a HDPE container at elevated storage conditions, unless otherwise stated.

[3] = Competitive slurry experiments between Form I and Form II; format: physicochemical; settings: competitive slurries of a mechanical mixture of Form I and Form II, range of temperatures (5-50)
Text: The results of the competitive slurry experiments are provided below in Table 6.

T3 sequence (P10635 whole entry): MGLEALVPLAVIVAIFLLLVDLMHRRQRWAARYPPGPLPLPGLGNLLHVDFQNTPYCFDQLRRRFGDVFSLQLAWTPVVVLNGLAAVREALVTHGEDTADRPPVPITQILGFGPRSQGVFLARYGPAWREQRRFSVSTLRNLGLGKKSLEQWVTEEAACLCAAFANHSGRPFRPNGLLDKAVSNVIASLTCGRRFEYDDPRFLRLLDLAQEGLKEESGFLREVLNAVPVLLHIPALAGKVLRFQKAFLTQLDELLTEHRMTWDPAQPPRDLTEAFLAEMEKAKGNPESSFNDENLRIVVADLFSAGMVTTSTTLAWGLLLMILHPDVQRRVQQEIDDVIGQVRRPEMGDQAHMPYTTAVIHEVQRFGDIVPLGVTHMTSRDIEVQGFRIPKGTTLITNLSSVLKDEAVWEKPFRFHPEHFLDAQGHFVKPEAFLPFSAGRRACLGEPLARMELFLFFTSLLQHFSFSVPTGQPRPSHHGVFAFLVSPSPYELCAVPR

- clearance [1]: 13.1 mL/min/kg
- half-life [1]: 8.69 h
- Vd ([1]; read-out: Vss): 8.8 L/kg
- (% Activity NADPH T0)/(% Activity NADPH T30) (CYP1A2; CYP1A2, 25 μM): 1.1
- (% Activity NADPH T0)/(% Activity NADPH T30) (CYP1A2; CYP1A2, 50 μM): 1.0
- activity at 30 min, 25 µM (CYP1A2; human, pooled human liver microsomes, CYP1A2, 25 μM, 30 minutes incubation, read-out: % Activity NADPH T30): 90%
- activity at 0 min, 25 µM (CYP1A2; human, pooled human liver microsomes, CYP1A2, 25 μM, time zero, read-out: % Activity NADPH T0): 95%
- activity at 30 min, 50 µM (CYP1A2; human, pooled human liver microsomes, CYP1A2, 50 μM, 30 minutes incubation, read-out: % Activity NADPH T30): 85%
- activity at 0 min, 50 µM (CYP1A2; human, pooled human liver microsomes, CYP1A2, 50 μM, time zero, read-out: % Activity NADPH T0): 86%
- (% Activity NADPH T0)/(% Activity NADPH T30) (CYP2B6; CYP2B6, 25 μM): 1.1
- (% Activity NADPH T0)/(% Activity NADPH T30) (CYP2B6; CYP2B6, 50 μM): 1.0
- activity at 30 min, 25 µM (CYP2B6; human, pooled human liver microsomes, CYP2B6, 25 μM, 30 minutes incubation, read-out: % Activity NADPH T30): 84%
- activity at 0 min, 25 µM (CYP2B6; human, pooled human liver microsomes, CYP2B6, 25 μM, time zero, read-out: % Activity NADPH T0): 95%
- activity at 30 min, 50 µM (CYP2B6; human, pooled human liver microsomes, CYP2B6, 50 μM, 30 minutes incubation, read-out: % Activity NADPH T30): 76%
- activity at 0 min, 50 µM (CYP2B6; human, pooled human liver microsomes, CYP2B6, 50 μM, time zero, read-out: % Activity NADPH T0): 76%
- (% Activity NADPH T0)/(% Activity NADPH T30) (CYP2D6; CYP2D6, 25 μM): 1.3
- (% Activity NADPH T0)/(% Activity NADPH T30) (CYP2D6; CYP2D6, 50 μM): 1.1
- fold change in activity (time dependent inhibition), 2D6 (CYP2D6; 25 μM): 1.3 fold
- fold change in activity (time dependent inhibition), 2D6 (CYP2D6; 50 μM): no change in activity
- activity at 30 min, 25 µM (CYP2D6; human, pooled human liver microsomes, CYP2D6, 25 μM, 30 minutes incubation, read-out: % Activity NADPH T30): 90%
- activity at 0 min, 25 µM (CYP2D6; human, pooled human liver microsomes, CYP2D6, 25 μM, time zero, read-out: % Activity NADPH T0): 118%
- activity at 30 min, 50 µM (CYP2D6; human, pooled human liver microsomes, CYP2D6, 50 μM, 30 minutes incubation, read-out: % Activity NADPH T30): 88%
- activity at 0 min, 50 µM (CYP2D6; human, pooled human liver microsomes, CYP2D6, 50 μM, time zero, read-out: % Activity NADPH T0): 93%
Compound: C[C@H]1CC[C@H](N2CC(=O)N(Cc3ccc(F)c(F)c3)C3(CN(C=O)C3)C2=O)CC1 [Compound 1, 5-(3,4-difluorobenzyl)-8-((1r,4r)-4-methylcyclohexyl)-6,9-dioxo-2,5,8-triazaspiro[3.5]nonane-2-carbaldehyde]

- Assay ([2]; 25° C./60% RH, 1 month): 99.0 % w/w
- Purity ([2]; 25° C./60% RH, 1 month): 99.1%
- Total Impurities ([2]; 25° C./60% RH, 1 month): 0.92%
- Water Content ([2]; 25° C./60% RH, 1 month): 0.02 % w/w
- Assay ([2]; 25° C./60% RH, 3 months): 98.8 % w/w
- Purity ([2]; 25° C./60% RH, 3 months): 99.1%
- Total Impurities ([2]; 25° C./60% RH, 3 months): 0.91%
- Water Content ([2]; 25° C./60% RH, 3 months): 0.01 % w/w
- Assay ([2]; 25° C./60% RH, 6 months): 99.2 % w/w
- Total Impurities ([2]; 25° C./60% RH, 6 months): 0.93%
- Water Content ([2]; 25° C./60% RH, 6 months): 0.09 % w/w
- XRPD ([2]; 25° C./60% RH, 6 months): Form II
- Assay ([2]; 40° C./75% RH, 1 month): 98.6 % w/w
- Purity ([2]; 40° C./75% RH, 1 month): 99.1%
- Total Impurities ([2]; 40° C./75% RH, 1 month): 0.92%
- Water Content ([2]; 40° C./75% RH, 1 month): 0.01 % w/w
- Assay ([2]; 40° C./75% RH, 3 months): 97.9 % w/w
- Purity ([2]; 40° C./75% RH, 3 months): 99.1%
- Total Impurities ([2]; 40° C./75% RH, 3 months): 0.9%
- Water Content ([2]; 40° C./75% RH, 3 months): 0.01 % w/w
- Assay ([2]; 40° C./75% RH, 6 months): 99.5 % w/w
- Total Impurities ([2]; 40° C./75% RH, 6 months): 0.91%
- Water Content ([2]; 40° C./75% RH, 6 months): 0.06 % w/w
- XRPD ([2]; 40° C./75% RH, 6 months): Form II
- Assay ([2]; Initial): 99.1 % w/w
- Purity ([2]; Initial): 99.1%
- Total Impurities ([2]; Initial): 0.91%
- Water Content ([2]; Initial): 0.02 % w/w
- XRPD ([2]; Initial): Form II
- relative thermodynamic stability of Form I and Form II [3]: most stable form
Compound: C[C@H]1CC[C@H](N2CC(=O)N(Cc3ccc(F)c(F)c3)C3(CN(C=O)C3)C2=O)CC1 [Form II, 5-(3,4-difluorobenzyl)-8-((1r,4r)-4-methylcyclohexyl)-6,9-dioxo-2,5,8-triazaspiro[3.5]nonane-2-carbaldehyde]
